In patent US20100190747A1, “Fused ring compound and use thereof” (priority 2009, published 2010):

Target: T1, delta-5-desaturase (Rattus norvegicus, UniProt Q920R3)
T1 construct: the microsomal fraction of a rat river (10 μl), which had been diluted to 3 mg/ml; from tissue; host or cells: rat liver microsomal fraction
Assay: Inhibitory activity on delta-5-desaturase (rat liver microsomal fraction, 14C-eicosatrienoic acid, TLC)
Type: biochemical
Details: test compound at 10 μM, room temperature, 120 minutes
Summary of the method: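 Rat liver microsomes (3 mg/ml before addition) incubated with test compound at 10 μM, NADH, ATP, CoA and 14C-eicosatrienoic acid in phosphate buffer pH 7.4 with BSA and glutathione, 120 min at room temperature. Lipids saponified, extracted, separated by reverse-phase TLC and imaged; % inhibition reported.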

T1 sequence (Q920R3 whole entry): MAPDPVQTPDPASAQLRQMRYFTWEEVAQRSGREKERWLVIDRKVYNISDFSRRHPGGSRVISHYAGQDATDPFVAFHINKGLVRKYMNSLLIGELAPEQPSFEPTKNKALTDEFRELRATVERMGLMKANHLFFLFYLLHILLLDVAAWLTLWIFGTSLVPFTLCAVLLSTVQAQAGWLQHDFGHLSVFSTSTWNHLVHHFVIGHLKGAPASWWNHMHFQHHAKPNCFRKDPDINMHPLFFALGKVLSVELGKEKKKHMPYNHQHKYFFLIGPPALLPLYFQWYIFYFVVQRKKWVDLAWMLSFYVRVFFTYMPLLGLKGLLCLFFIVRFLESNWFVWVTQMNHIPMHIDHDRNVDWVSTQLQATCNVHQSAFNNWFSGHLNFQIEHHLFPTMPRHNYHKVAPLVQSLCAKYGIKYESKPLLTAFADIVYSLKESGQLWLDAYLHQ

Structure (SMILES)	inhibition at 10 µM [%]
CCSc1nc2[nH]c(Cl)cc2c(=O)n1-c1ccc(OCC(F)(F)F)cc1 [Example 231, 6-Chloro-2-(ethylsulfanyl)-3-[4-(2,2,2-trifluoroethoxy)phenyl]-3,7-dihydro-4H-pyrrolo[2,3-d]pyrimidin-4-one]	101
CCSc1nc2[nH]c(Br)cc2c(=O)n1-c1ccc(OCC(F)(F)F)cc1 [Example 232, 6-Bromo-2-(ethylsulfanyl)-3-[4-(2,2,2-trifluoroethoxy)phenyl]-3,7-dihydro-4H-pyrrolo[2,3-d]pyrimidin-4-one]	96
CSc1nc2[nH]ccc2c(=O)n1-c1ccc(OCC(F)(F)F)c(F)c1 [Example 237, 3-[3-Fluoro-4-(2,2,2-trifluoroethoxy)phenyl]-2-(methylsulfanyl)-3,7-dihydro-4H-pyrrolo[2,3-d]pyrimidin-4-one]	98
O=c1c2cc[nH]c2nc(OCC(F)(F)C(F)(F)F)n1-c1ccc(OCC(F)(F)F)cc1 [Example 239, 2-(2,2,3,3,3-Pentafluoropropoxy)-3-[4-(2,2,2-trifluoroethoxy)phenyl]-3,7-dihydro-4H-pyrrolo[2,3-d]pyrimidin-4-one]	101
O=c1c2cc[nH]c2nc(OCC(F)F)n1-c1ccc(OCC(F)(F)F)cc1 [Example 244, 2-(2,2-Difluoroethoxy)-3-[4-(2,2,2-trifluoroethoxy)phenyl]-3,7-dihydro-4H-pyrrolo[2,3-d]pyrimidin-4-one]	101
O=c1c2cc[nH]c2nc(Oc2ccc(F)cc2)n1-c1ccc(OCC(F)(F)F)cc1 [Example 246, 2-(4-Fluorophenoxy)-3-[4-(2,2,2-trifluoroethoxy)phenyl]-3,7-dihydro-4H-pyrrolo[2,3-d]pyrimidin-4-one]	101
O=c1c2cc[nH]c2nc(OC2CCC2)n1-c1ccc(OCC(F)(F)F)cc1 [Example 247, 2-(Cyclobutyloxy)-3-[4-(2,2,2-trifluoroethoxy)phenyl]-3,7-dihydro-4H-pyrrolo[2,3-d]pyrimidin-4-one]	103
CCSc1nc2[nH]ccc2c(=O)n1-c1ccc(OCC(F)F)cc1 [Example 248, 3-[4-(2,2-Difluoroethoxy)phenyl]-2-(ethylsulfanyl)-3,7-dihydro-4H-pyrrolo[2,3-d]pyrimidin-4-one]	101
CCSc1nc2[nH]ccc2c(=O)n1-c1ccc(OCC(F)(F)C(F)(F)F)cc1 [Example 249, 2-(Ethylsulfanyl)-3-[4-(2,2,3,3,3-pentafluoropropoxy)phenyl]-3,7-dihydro-4H-pyrrolo[2,3-d]pyrimidin-4-one]	100
CC(C)Sc1nc2[nH]ccc2c(=O)n1-c1ccc(OCC(F)(F)F)cc1 [Example 251, 2-[(1-Methylethyl)sulfanyl]-3-[4-(2,2,2-trifluoroethoxy)phenyl]-3,7-dihydro-4H-pyrrolo[2,3-d]pyrimidin-4-one]	97
CCCCSc1nc2[nH]ccc2c(=O)n1-c1ccc(OCC(F)(F)F)cc1 [Example 252, 2-(Butylsulfanyl)-3-[4-(2,2,2-trifluoroethoxy)phenyl]-3,7-dihydro-4H-pyrrolo[2,3-d]pyrimidin-4-one]	96
O=c1c2cc[nH]c2nc(SC(F)(F)F)n1-c1ccc(OCC(F)(F)F)cc1 [Example 253, 3-[4-(2,2,2-Trifluoroethoxy)phenyl]-2-[(trifluoromethyl)sulfanyl]-3,7-dihydro-4H-pyrrolo[2,3-d]pyrimidin-4-one]	98
CCSc1nc2[nH]ccc2c(=O)n1-c1ccc(OC(F)(F)F)cc1 [Example 254, 2-(Ethylsulfanyl)-3-[4-(trifluoromethoxy)phenyl]-3,7-dihydro-4H-pyrrolo[2,3-d]pyrimidin-4-one]	98
O=c1c2cc[nH]c2nc(SCC2CC2)n1-c1ccc(OCC(F)(F)F)cc1 [Example 255, 2-[(Cyclopropylmethyl)sulfanyl]-3-[4-(2,2,2-trifluoroethoxy)phenyl]-3,7-dihydro-4H-pyrrolo[2,3-d]pyrimidin-4-one]	101
O=c1c2cc[nH]c2nc(SC2CC2)n1-c1ccc(OCC(F)(F)F)cc1 [Example 256, 2-(Cyclopropylsulfanyl)-3-[4-(2,2,2-trifluoroethoxy)phenyl]-3,7-dihydro-4H-pyrrolo[2,3-d]pyrimidin-4-one]	104
O=c1c2cc[nH]c2nc(OCC(F)(F)F)n1-c1ccc(OCC(F)(F)F)c(F)c1 [Example 264, 3-[3-Fluoro-4-(2,2,2-trifluoroethoxy)phenyl]-2-(2,2,2-trifluoroethoxy)-3,7-dihydro-4H-pyrrolo[2,3-d]pyrimidin-4-one]	101
CCSc1nc2c(c(=O)n1-c1ccc(OCC(F)(F)F)cc1)CC(=O)N2 [Example 265, 2-(Ethylsulfanyl)-3-[4-(2,2,2-trifluoroethoxy)phenyl]-5,7-dihydro-3H-pyrrolo[2,3-d]pyrimidine-4,6-dione]	98

Second part, the molecule after the results:

inhibition at 10 µM [%]	Structure (SMILES)
100	CSc1nc2c(c(=O)n1-c1ccc(OCC(F)(F)F)cc1)CC(=O)N2 [Example 267, 2-(Methylsulfanyl)-3-[4-(2,2,2-trifluoroethoxy)phenyl]-5,7-dihydro-3H-pyrrolo[2,3-d]pyrimidine-4,6-dione]
99	CCSc1nc2c(c(=O)n1-c1ccc(OCC(F)(F)C(F)(F)F)cc1)CC(=O)N2 [Example 269, 2-(Ethylsulfanyl)-3-[4-(2,2,3,3,3-pentafluoropropoxy)phenyl]-5,7-dihydro-3H-pyrrolo[2,3-d]pyrimidine-4,6-dione]
99	CCSc1nc2c(c(=O)n1-c1ccc(OCC(F)F)cc1)CC(=O)N2 [Example 270, 3-[4-(2,2-Difluoroethoxy)phenyl]-2-(ethylsulfanyl)-5,7-dihydro-3H-pyrrolo[2,3-d]pyrimidine-4,6-dione]
99	O=C1Cc2c(nc(OCC(F)F)n(-c3ccc(OCC(F)(F)F)cc3)c2=O)N1 [Example 275, 2-(2,2-Difluoroethoxy)-3-[4-(2,2,2-trifluoroethoxy)phenyl]-5,7-dihydro-3H-pyrrolo[2,3-d]pyrimidine-4,6-dione]
94	CCOc1nc2c(c(=O)n1-c1ccc(OCC(F)(F)C(F)(F)F)cc1)CC(=O)N2 [Example 277, 2-Ethoxy-3-[4-(2,2,3,3,3-pentafluoropropoxy)phenyl]-5,7-dihydro-3H-pyrrolo[2,3-d]pyrimidine-4,6-dione]
96	CC(C)Sc1nc2c(c(=O)n1-c1ccc(OCC(F)(F)F)cc1)CC(=O)N2 [Example 285, 2-[(1-Methylethyl)sulfanyl]-3-[4-(2,2,2-trifluoroethoxy)phenyl]-5,7-dihydro-3H-pyrrolo[2,3-d]pyrimidine-4,6-dione]
102	CCCSc1nc2c(c(=O)n1-c1ccc(OCC(F)(F)F)cc1)CC(=O)N2 [Example 286, 2-(Propylsulfanyl)-3-[4-(2,2,2-trifluoroethoxy)phenyl]-5,7-dihydro-3H-pyrrolo[2,3-d]pyrimidine-4,6-dione]

Same assay, conditions: test compound at 10 μM, room temperature, 120 minutes, 10 µM

Structure (SMILES)	Inhibitory activity at 10 μM (%)
O=c1c2cc[nH]c2nc(OC2CCC2)n1-c1ccc(OCC(F)(F)F)cc1 [Example 283, 2-(Cyclobutyloxy)-3-[4-(2,2,2-trifluoroethoxy)phenyl]-3,7-dihydro-4H-pyrrolo[2,3-d]pyrimidin-4-one]	101
CCCCOc1nc2[nH]ccc2c(=O)n1-c1ccc(OCC(F)(F)F)cc1 [Example 287, 2-Butoxy-3-[4-(2,2,2-trifluoroethoxy)phenyl]-3,7-dihydro-4H-pyrrolo[2,3-d]pyrimidin-4-one]	98
